In patent US11046686B2, “Thiadiazole IRAK4 compounds” (Gilead Sciences, Inc., priority 2018, dated 2021):

Test system: TNFα
Assay: IRAK4 Monocyte TNFα Cell Based Assay
Parameters: species or system human
Settings: human monocytes; second part of Table 2, compounds 33-343; unit inferred; read-out: EC50 MONO TNF HTRF
How it was run: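 TNFα release quantified by HTRF (cryptate/XL665 antibody pair, overnight at RT) after 1 h compound pre-incubation (0.1% DMSO) and 4 h LPS challenge at 50 pg/ml, 37 °C, 5,000 monocytes per well. Signal ratio normalised between unstimulated (0%) and stimulated (100%) controls.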

| Compound | EC50 [nM] |
| --- | --- |
| CC(C)Nc1cc(-c2ccc3cc(C#N)cnn23)ncc1-c1nnc(N2C[C@H]3CC[C@@H](C2)[C@@]3(C)O)s1 [Example 153, 7-(5-(5-((1R,55,8r)-8-hydroxy-8-methyl-3-azabicyclo[3.2.1]octan-3-yl)-1,3,4-thiadiazol-2-yl)-4-(isopropylamino)pyridin-2-yl)pyrrolo[1,2-b]pyridazine-3-carbonitrile] | 7.2 |
| CC(C)Nc1cc(-c2ccc3cc(C#N)cnn23)ncc1-c1nnc(N2C[C@H]3CC[C@@H](C2)[C@@H]3O)s1 [Example 154, 7-(5-(5-((1R,5S,8s)-8-hydroxy-3-azabicyclo[3.2.1]octan-3-yl)-1,3,4-thiadiazol-2-yl)-4-(isopropylamino)pyridin-2-yl)pyrrolo[1,2-b]pyridazine-3-carbonitrile] | 13.3 |
| CC(=O)N[C@]1(C)[C@@H]2CC[C@H]1CN(c1nnc(-c3cnc(-c4ccc5cc(C#N)cnn45)cc3NC(C)C)s1)C2 [Example 155] | 7.4 |
| N#Cc1cnn2c(-c3cc(NC4CCOCC4)c(-c4nnc([C@H]5CC[C@H](NC(=O)C6CC6)CC5)s4)cn3)ccc2c1 [Example 156, N-((1r,4r)-4-(5-(6-(3-cyanopyrrolo[1,2-b]pyridazin-7-yl)-4-((tetrahydro-2H-pyran-4-yl)amino)pyridin-3-yl)-1,3,4-thiadiazol-2-yl)cyclohexyl)cyclopropanecarboxamide] | 10.9 |
| CC(=O)N[C@]1(C)[C@@H]2CC[C@H]1CN(c1nnc(-c3cnc(-c4ccc5cc(C#N)cnn45)cc3N[C@H](C)C#N)s1)C2 [Example 157, N-((1R,5S,8S)-3-(5-(4-((R)-1-cyanoethypamino)-6-(3-cyanopyrrolo[1,2-b]pyridazin-7-yl)pyridin-3-yl)-1,3,4-thiadiazol-2-yl)-8-methyl-3-azabicyclo[3.2.1]octan-8-yl)acetamide] | 1.8 |
| CC1(Nc2cc(-c3ccc4cc(C#N)cnn34)ncc2-c2nnc([C@H]3CC[C@H](NC(=O)C4CC4)CC3)s2)COC1 [Example 158, N-((1r,4r)-4-(5-(6-(3-cyanopyrrolo[1,2-b]pyridazin-7-yl)-4-((3-methyloxetan-3-yl)amino)pyridin-3-yl)-1,3,4-thiadiazol-2-yl)cyclohexyl)cyclopropanecarboxamide] | 19.8 |
| CC(C)Nc1cc(-c2ccc3cc(C#N)cnn23)ncc1-c1nnc(N2CC3CCC(C2)C3(O)C(F)(F)F)s1 (centres unmarked) [Example 159, 7-(5-(5-(8-hydroxy-8-(trifluoromethyl)-3-azabicyclo[3.2.1]octan-3-yl)-1,3,4-thiadiazol-2-yl)-4-(isopropylamino)pyridin-2-yl)pylrolo[1,2-b]pyridazine-3-carbonitrile] | 25.7 |
| C[C@H](C#N)Nc1cc(-c2ccc3cc(C#N)cnn23)ncc1-c1nnc([C@H]2CC[C@H](NC(=O)C3CC3)CC2)s1 [Example 160, N-((1R,4r)-4-(5-(4-(((R)-1-cyanoethyl)amino)-6-(3-cyanopyrrolo[1,2-b]pyridazin-7-yl)pyridin-3-yl)-1,3,4-thiadiazol-2-yl)cyclohexyl)cyclopropanecarboxamide] | 2.8 |
| CC(C)Nc1cc(-c2ccc3cc(C#N)cnn23)ncc1-c1nnc(N2CC3(CCNC3=O)C2)s1 [Example 164] | 17.5 |
| CC(=O)N[C@H]1[C@@H]2CCC[C@H]1CN(c1nnc(-c3cnc(-c4ccc5cc(C#N)cnn45)cc3NC(C)C)s1)C2 [Example 165, N-((1R,5S,9r)-3-(5-(6-(3-cyanopyrrolo[1,2-b]pyridazin-7-yl)-4-(isopropylamino)pyridin-3-yl)-1,3,4-thiadiazol-2-yl)-3-azabicyclo[3.3.1]nonan-9-yl)acetamide] | 39.1 |
| CC(=O)N[C@@H]1[C@@H]2CCC[C@H]1CN(c1nnc(-c3cnc(-c4ccc5cc(C#N)cnn45)cc3NC(C)C)s1)C2 [Example 166, N-((1R,5S,9s)-3-(5-(6-(3-cyanopyrrolo[1,2-b]pyridazin-7-yl)-4-(isopropylamino)pyridin-3-yl)-1,3,4-thiadiazol-2-yl)-3-azabicyclo[3.3.1]nonan-9-yl)acetamide] | 2.3 |
